Laboratory results as given in US20250325508A1, “MODULATORS OF PROTEASOME DYNAMICS AND/OR FUNCTION, COMPOSITIONS, METHODS, AND THERAPEUTIC USES THEREOF” (TECHNION RESEARCH & DEVELOPMENT FOUNDATION LIMITED, priority 2022, published 2025).

Legend:
26S proteasome = assay: Proteasome subcellular localization in cultured cells (immunofluorescence, cell fractionation/Western blot); format: cell-based, human; settings: for proteasome dynamics under known p38 activators: RT4 and HeLa cells; for proteasome localization: non-stressed / well-fed cells, complete medium; for proteasome translocation from the nucleus to the cytosol: amino acid starvation, substance added to starvation medium
Procedure: Cells were incubated for 20 min in fractionation buffer [20 mM HEPES pH 7.3, 10 mM KCl, 5 mM ATP, 5 mM MgCl2, and protease inhibitor cocktail (Roche)], followed by the addition of Digitonin (0.01%). They were then mixed thoroughly and centrifuged at 1,000×g for 5 min. The supernatant was collected as cytosolic fraction, and the pellet was washed with fractionation buffer supplemented with NP-40 (0.05%) and centrifuged, and the pellet (nuclei) was resuspended in fractionation buffer supplemented with sodium deoxycholate (0.5%), followed by its sonication.
(§1) Cells were washed twice with ice cold PBS and scraped into lysis buffer (50 mM Tris-HCl, pH 7.4, 130 mM NaCl, 0.5% NP-40) supplemented with freshly added protease inhibitor cocktail, 5 mM ATP, 10 mM iodoacetamide, and 5 mM N-ethyl maleimide. Protein concentration was measured by the BCA assay according to the manufacturer's instructions (Pierce, Rockford, IL). 30 μg of cellular protein were resolved via SDS-PAGE, transferred to a nitrocellulose membrane and immunoblotted with the appropriate antibody.
Cells were seeded on glass cover slips for 36 h. Following the indicated treatments, they were fixed with 4% PFA for 15 min, washed with phosphate-buffered saline (PBS) and incubated in PBS containing 10% goat serum for 1 h at room temperature, followed by 2 h incubation with the indicated primary antibody. Following extensive wash with PBS, the fixed cells were incubated with the relevant secondary antibody for 1 h, washed and mounted. Images were acquired using Zeiss LSM 700 confocal microscope (Zeiss, Oberkochen, Germany). […]

HeLa and RT4 cells = assay: Cell survival assay (live/dead imaging); format: cell-based
Procedure: Data analysis was performed using the Live/Dead module of the MetaXpress software (Molecular Devices). […] Intensities were quantified using Li-Cor imager and software (Odyssey).

STAT3 = assay: Western blot for STAT3 phosphorylated at Tyr705; format: cell-based, human; settings: Torin1 treatment
Procedure: as §1

HeLa cells = assay: Amino acids level measurement (LC-MS); format: cell-based, human; settings: Torin1 treatment relative to control
Procedure: Metabolic analysis was carried out as previously described [G. M. MacKay et al., 1st Ed. (Elsevier Inc., 2015)]. Briefly, cells were rapidly washed 3 times with ice-cold PBS and extracted with an aqueous solution of 50% Methanol, and 30% Acetonitrile. Samples were centrifuged at 16,000×g for 10 min at 4° C., and the supernatants were analyzed using HPLC-MS (Q-Exactive Orbitrap Mass Spectrometer (Thermo Scientific) coupled to Thermo Scientific UltiMate 3000 HPLC system). The HPLC setup consisted of a ZIC-PHILIC column (SeQuant, 150×2.1 mm, 5 μm, Merck) with a ZIC-PHILIC guard column (SeQuant, 20×2.1 mm). The aqueous mobile phase solvent was 20 mM ammonium carbonate adjusted to pH 9.4 with 0.1% ammonium hydroxide. The organic mobile phase was acetonitrile. Amino acids and other metabolites were separated over a 15 min linear gradient from 80% organic to 80% aqueous. The column temperature was 45° C., the flow rate 200 μl/min, and the run time 27 min. All metabolites were detected across a mass range of 75-1,000 m/z using the Q-Exactive mass spectrometer at a resolution of 35,000 (at 200 m/z) with electrospray ionization and polarity switching mode. Mass accuracy obtained for all metabolites was below 5 ppm. Data were acquired with Thermo Xcalibur software. The peak areas of different amino acids were determined using Thermo TraceFinder software through which metabolites were identified by the exact mass of the singly charged ion and the known retention time on the HPLC column. Commercially available standard compounds had been analyzed before to determine ion masses and retention times on the ZIC-PHILIC column. Protein quantitation based on the Lowry method was performed for normalization. The figure presents mean+/−SD of three replicates.

Molecule: OC[C@@H](O)[C@@H](O)[C@H](O)[C@@H](O)CO [hyperosmotic stress, Sorbitol]
- proteasome dynamics under known p38 activators (26S proteasome): the proteasome was locked in the nucleus
- cell death under known p38 activators (HeLa and RT4 cells): many of the cells died

Molecule: CCC(=O)N1CCN(c2ccc(-n3c(=O)ccc4cnc5ccc(-c6cnc7ccccc7c6)cc5c43)cc2C(F)(F)F)CC1 [Torin1]
- proteasome localization (26S proteasome): induced nuclear export of both 20S and 19S sub-complexes
- STAT3 Y705 phosphorylation (STAT3): upregulation of Y705 phosphorylation
- level of amino acids (HeLa cells): gain in amino acids

Molecule: N[C@@H](Cc1c[nH]c2ccccc12)C(=O)O [Trp, Tryptophan]
- proteasome translocation from the nucleus to the cytosol (26S proteasome): inhibitory effect on proteasome translocation

Molecule: N[C@@H](Cc1ccc(O)cc1)C(=O)O [Tyr, 4-hydroxyphenylalanine]
- proteasome translocation from the nucleus to the cytosol (26S proteasome): inhibitory effect on proteasome translocation

Molecule: O=[N+]([O-])c1ccc2c(c1)S(=O)(=O)C=C2 [Stattic]
- proteasome translocation from the nucleus to the cytosol (26S proteasome): prevented proteasome translocation from the nucleus to the cytosol

Molecule: C[C@@H]1C[C@@H]([C@H](O)CC2CC(=O)NC(=O)C2)C(=O)[C@@H](C)C1 [cycloheximide]
- restoration of the nuclear proteasomal pool (26S proteasome; replenishment of amino acids after starvation, in presence of substance): did not prevent restoration of the nuclear proteasomal pool

Molecule: COc1ccc(C[C@H]2NC[C@H](O)[C@H]2OC(C)=O)cc1 [anisomycin]
- proteasome dynamics under known p38 activators (26S proteasome): the proteasome was locked in the nucleus
- cell death under known p38 activators (HeLa and RT4 cells): many of the cells died

Molecule: Ivermectin
- proteasome localization (26S proteasome): cytosolic accumulation

Molecule: N[C@@H](Cc1ccccc1)C(=O)O [Phe, Phenylalanine]
- proteasome translocation from the nucleus to the cytosol (26S proteasome): inhibitory effect on proteasome translocation
